Literature values, collected in patent US5419315A, “Intrapulmonary delivery of hormones” (Aradigm Corporation, priority 1994, dated 1995).

Details: in vivo

Compound	Bioavailability (%)	bioavailability when administered intranasally
NC(=O)CC[C@@H]1NC(=O)[C@H](Cc2ccccc2)NC(=O)[C@H](Cc2ccc(O)cc2)NC(=O)CCSSC[C@@H](C(=O)N2CCC[C@H]2C(=O)N[C@H](CCCN=C(N)N)C(=O)NCC(N)=O)NC(=O)[C@H](CC(N)=O)NC1=O [Desmopressin]	10%	
CCNC(=O)[C@@H]1CCCN1C(=O)[C@H](CCCNC(=N)N)NC(=O)[C@H](CC(C)C)NC(=O)[C@@H](CC(C)C)NC(=O)[C@H](Cc1ccc(O)cc1)NC(=O)[C@H](CO)NC(=O)[C@H](Cc1c[nH]c2ccccc12)NC(=O)[C@H](Cc1c[nH]cn1)NC(=O)[C@@H]1CCC(=O)N1 [Leuprolide]	< 10%	relatively low
CC(C)C[C@H](NC(=O)[C@@H](Cc1ccc2ccccc2c1)NC(=O)[C@H](Cc1ccc(O)cc1)NC(=O)[C@H](CO)NC(=O)[C@H](Cc1c[nH]c2ccccc12)NC(=O)[C@H](Cc1c[nH]cn1)NC(=O)[C@@H]1CCC(=O)N1)C(=O)N[C@@H](CCCNC(=N)N)C(=O)N1CCC[C@H]1C(=O)NCC(N)=O [Nafarelin]	2%	
LHRH	1.5%	
Secretin	10%	

Same assay, conditions: intranasal (nasal delivery)

Compound	Bioavailability (%)
CC[C@H](C)[C@@H]1NC(=O)[C@H](Cc2ccc(O)cc2)NC(=O)[C@@H](N)CSSC[C@@H](C(=O)N2CCC[C@H]2C(=O)N[C@@H](CC(C)C)C(=O)NCC(N)=O)NC(=O)[C@H](CC(N)=O)NC(=O)[C@H](CCC(N)=O)NC1=O [Oxytocin]	1%
C[C@H](N)C(=O)NCC(=O)N[C@H]1CSSC[C@@H](C(=O)O)NC(=O)[C@H](CO)NC(=O)[C@H]([C@@H](C)O)NC(=O)[C@H](Cc2ccccc2)NC(=O)[C@H]([C@@H](C)O)NC(=O)[C@H](CCCCN)NC(=O)[C@H](Cc2c[nH]c3ccccc23)NC(=O)[C@H](Cc2ccccc2)NC(=O)[C@H](Cc2ccccc2)NC(=O)[C@H](CC(N)=O)NC(=O)[C@H](CCCCN)NC1=O [Somatostatin]	75%
Calcitonin	< 1%
GHRH (YADAIFTNSYRKVLGQLSARKLLQDIMSRQQGESNQERGA; Somatoliberin; UniProt P01286 32-71, looked up, fragment)	< 1%
Glucagon	< 1%
Growth hormone	< 1%
